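Assay format: 96-well plates, 48-hour exposure. TGI is the concentration that stops growth completely.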
Tests used:
Assay in all cases: NCI anticancer screen, dose series, 48 h
K-562 leukemia = tested on: K-562 leukemia
MCF7 breast = tested on: MCF7 breast
SR leukemia = tested on: SR leukemia
OVCAR-4 ovarian = tested on: OVCAR-4 ovarian
NCI-H23 lung = tested on: NCI-H23 lung
NCI-H522 lung = tested on: NCI-H522 lung
MDA-MB-231 breast = tested on: MDA-MB-231 breast
COLO 205 colon = tested on: COLO 205 colon
HOP-92 NSCLC = tested on: HOP-92 NSCLC
SF-268 CNS = tested on: SF-268 CNS
HL-60(TB) leukemia = tested on: HL-60(TB) leukemia
BT-549 breast = tested on: BT-549 breast
HCT-116 colon = tested on: HCT-116 colon
M14 melanoma = tested on: M14 melanoma
NCI-H460 lung = tested on: NCI-H460 lung
SW-620 colon = tested on: SW-620 colon
SK-MEL-2 melanoma = tested on: SK-MEL-2 melanoma
U251 CNS = tested on: U251 CNS
SK-OV-3 ovarian = tested on: SK-OV-3 ovarian
SF-295 CNS = tested on: SF-295 CNS
UACC-62 melanoma = tested on: UACC-62 melanoma
RPMI-8226 leukemia = tested on: RPMI-8226 leukemia
RXF 393 renal = tested on: RXF 393 renal
PC-3 prostate = tested on: PC-3 prostate
ACHN renal = tested on: ACHN renal
MALME-3M melanoma = tested on: MALME-3M melanoma
OVCAR-8 ovarian = tested on: OVCAR-8 ovarian
DU-145 prostate = tested on: DU-145 prostate
EKVX NSCLC = tested on: EKVX NSCLC
HOP-62 NSCLC = tested on: HOP-62 NSCLC
SN12C renal = tested on: SN12C renal
CAKI-1 renal = tested on: CAKI-1 renal
KM12 colon = tested on: KM12 colon
MDA-N = tested on: MDA-N
NCI-H226 lung = tested on: NCI-H226 lung
TK-10 renal = tested on: TK-10 renal
HS 578T breast = tested on: HS 578T breast
SK-MEL-5 melanoma = tested on: SK-MEL-5 melanoma
UACC-257 melanoma = tested on: UACC-257 melanoma
786-0 renal = tested on: 786-0 renal
MOLT-4 leukemia = tested on: MOLT-4 leukemia
A549 NSCLC = tested on: A549 NSCLC
SF-539 CNS = tested on: SF-539 CNS
OVCAR-3 ovarian = tested on: OVCAR-3 ovarian
HCT-15 colon = tested on: HCT-15 colon
SNB-75 CNS = tested on: SNB-75 CNS
SNB-19 CNS = tested on: SNB-19 CNS
MDA-MB-435 = tested on: MDA-MB-435
UO-31 renal = tested on: UO-31 renal
SK-MEL-28 melanoma = tested on: SK-MEL-28 melanoma
A498 renal = tested on: A498 renal
T-47D breast = tested on: T-47D breast
CCRF-CEM leukemia = tested on: CCRF-CEM leukemia
OVCAR-5 ovarian = tested on: OVCAR-5 ovarian
IGROV1 ovarian = tested on: IGROV1 ovarian
NCI/ADR-RES ovarian = tested on: NCI/ADR-RES ovarian
HT29 colon = tested on: HT29 colon
LOX IMVI melanoma = tested on: LOX IMVI melanoma
HCC-2998 colon = tested on: HCC-2998 colon

Measured: TGI

CC1=NN(c2ccc(S(=O)(=O)O)cc2)C(=O)/C1=C/c1ccc(Cl)cc1
> 100 µM: K-562 leukemia | MCF7 breast | SR leukemia | OVCAR-4 ovarian | NCI-H23 lung | NCI-H522 lung | MDA-MB-231 breast | COLO 205 colon | HOP-92 NSCLC | SF-268 CNS | HL-60(TB) leukemia | BT-549 breast | HCT-116 colon | M14 melanoma | NCI-H460 lung | SW-620 colon | SK-MEL-2 melanoma | U251 CNS | SK-OV-3 ovarian | SF-295 CNS | UACC-62 melanoma | RPMI-8226 leukemia | RXF 393 renal | PC-3 prostate | ACHN renal | MALME-3M melanoma | OVCAR-8 ovarian | DU-145 prostate | EKVX NSCLC | HOP-62 NSCLC | SN12C renal | CAKI-1 renal | KM12 colon | MDA-N | NCI-H226 lung | TK-10 renal | HS 578T breast | SK-MEL-5 melanoma | UACC-257 melanoma | 786-0 renal | MOLT-4 leukemia | A549 NSCLC | SF-539 CNS | OVCAR-3 ovarian | HCT-15 colon | SNB-75 CNS | SNB-19 CNS | MDA-MB-435 | UO-31 renal | SK-MEL-28 melanoma | A498 renal | T-47D breast | CCRF-CEM leukemia | OVCAR-5 ovarian | IGROV1 ovarian | NCI/ADR-RES ovarian | HT29 colon | LOX IMVI melanoma

COC(=O)c1ccccc1NC(=NC1CCCCCC1)NS(=O)(=O)c1ccc(C)cc1
> 100 µM: K-562 leukemia | MCF7 breast | SR leukemia | OVCAR-4 ovarian | NCI-H23 lung | NCI-H522 lung | MDA-MB-231 breast | COLO 205 colon | HOP-92 NSCLC | SF-268 CNS | HL-60(TB) leukemia | BT-549 breast | HCT-116 colon | M14 melanoma | NCI-H460 lung | SW-620 colon | SK-MEL-2 melanoma | U251 CNS | SK-OV-3 ovarian | SF-295 CNS | UACC-62 melanoma | RPMI-8226 leukemia | RXF 393 renal | PC-3 prostate | ACHN renal | OVCAR-8 ovarian | DU-145 prostate | EKVX NSCLC | HOP-62 NSCLC | SN12C renal | CAKI-1 renal | KM12 colon | MDA-N | NCI-H226 lung | TK-10 renal | HS 578T breast | SK-MEL-5 melanoma | UACC-257 melanoma | 786-0 renal | MOLT-4 leukemia | A549 NSCLC | SF-539 CNS | OVCAR-3 ovarian | HCT-15 colon | SNB-75 CNS | SNB-19 CNS | MDA-MB-435 | UO-31 renal | HCC-2998 colon | SK-MEL-28 melanoma | A498 renal | T-47D breast | CCRF-CEM leukemia | OVCAR-5 ovarian | IGROV1 ovarian | NCI/ADR-RES ovarian | HT29 colon | LOX IMVI melanoma

COC(=O)C1=CO[C@@H](OC2OC(CO)C(O)C(O)C2O)[C@H]2[C@@H](C)[C@@H](O)[C@@H](O)[C@@H]12 (stereo partly specified)
> 100 µM: MCF7 breast | SR leukemia | OVCAR-4 ovarian | NCI-H23 lung | NCI-H522 lung | MDA-MB-231 breast | COLO 205 colon | HOP-92 NSCLC | SF-268 CNS | HL-60(TB) leukemia | BT-549 breast | HCT-116 colon | M14 melanoma | SW-620 colon | SK-MEL-2 melanoma | U251 CNS | SK-OV-3 ovarian | SF-295 CNS | UACC-62 melanoma | RPMI-8226 leukemia | RXF 393 renal | PC-3 prostate | ACHN renal | MALME-3M melanoma | OVCAR-8 ovarian | DU-145 prostate | EKVX NSCLC | HOP-62 NSCLC | SN12C renal | CAKI-1 renal | KM12 colon | MDA-N | NCI-H226 lung | TK-10 renal | HS 578T breast | SK-MEL-5 melanoma | UACC-257 melanoma | 786-0 renal | MOLT-4 leukemia | A549 NSCLC | SF-539 CNS | OVCAR-3 ovarian | HCT-15 colon | SNB-75 CNS | MDA-MB-435 | UO-31 renal | HCC-2998 colon | SK-MEL-28 melanoma | A498 renal | T-47D breast | OVCAR-5 ovarian | IGROV1 ovarian | NCI/ADR-RES ovarian | HT29 colon | LOX IMVI melanoma

Reference: PubChem BioAssay (NCI)
